In PMC7650666, “Computational and In Vitro Investigation of (-)-Epicatechin and Proanthocyanidin B2 as Inhibitors of Human Matrix Metalloproteinase 1” (Biomolecules, 2020):

How the values were obtained:
[1] = molecular target: T1, Matrix metalloproteinase 1 (MMP-1) (Homo sapiens, UniProt P03956); assay: casein zymography of protein from fibroblast culture medium preincubated with compound (reference inhibitor); assay type: cell-based; conditions: read-out: % inhibition at 1000 μg/mL
T1 construct: gene MMP1; MMP-1 secreted by human fibroblast (Detroit551) cells, 54 kDa band
T1 sequence (P03956 20-469): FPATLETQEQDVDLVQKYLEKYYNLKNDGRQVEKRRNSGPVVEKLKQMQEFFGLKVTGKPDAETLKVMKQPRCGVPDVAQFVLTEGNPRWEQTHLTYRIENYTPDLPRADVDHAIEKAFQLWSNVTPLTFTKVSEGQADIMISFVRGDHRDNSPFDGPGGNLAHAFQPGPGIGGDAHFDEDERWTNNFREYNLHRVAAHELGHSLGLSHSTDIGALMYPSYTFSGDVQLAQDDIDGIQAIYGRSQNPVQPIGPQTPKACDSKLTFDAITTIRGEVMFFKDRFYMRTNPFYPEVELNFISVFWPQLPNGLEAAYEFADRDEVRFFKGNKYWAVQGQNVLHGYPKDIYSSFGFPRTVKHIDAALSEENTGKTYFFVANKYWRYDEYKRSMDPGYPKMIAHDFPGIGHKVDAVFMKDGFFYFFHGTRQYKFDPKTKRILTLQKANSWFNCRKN

[2] = molecular target: T1, Matrix metalloproteinase 1 (MMP-1); assay: casein zymography of protein from fibroblast culture medium preincubated with compound; assay type: cell-based; conditions: read-out: % inhibition at 1000 μg/mL

Row | inhibition at 1000 µg/mL [2] | Structure (SMILES) | inhibition at 1000 µg/mL [1]
1 |  | O=C(O[C@@H]1Cc2c(O)cc(O)cc2O[C@@H]1c1cc(O)c(O)c(O)c1)c1cc(O)c(O)c(O)c1 [epigallocatechin gallate] | 75.6%
2 | 43.4% | Oc1cc(O)c2c(c1)O[C@H](c1ccc(O)c(O)c1)[C@H](O)[C@H]2c1c(O)cc(O)c2c1O[C@H](c1ccc(O)c(O)c1)[C@H](O)C2 [proanthocyanidin B2] | 
3 | 69.2% | Oc1cc(O)c2c(c1)O[C@H](c1ccc(O)c(O)c1)[C@H](O)C2 [(-)-epicatechin] | 
